Results as given in PubChem BioAssay AID256 (DTP/NCI, 2004).
“And” between values parts separate entries of the source, which are not always exact repeats. Equal values may be shown once. Toxic doses and inconclusive results are not listed. How the source made its calls: active means survival T/C of 150% or more; inactive means T/C below 125% in these data.

System: CD2F1 mice, L1210 leukemia ip, survival T/C
Test: NCI In Vivo Anticancer Drug Screen. Data for tumor model L1210 Leukemia (intraperitoneal) in CD2F1 (CDF1) mice
Settings: higher = longer survival
Procedure, shortened: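 Compound-dosed mice with transplantable tumor versus matched vehicle controls; endpoint ratio T/C reported.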

[1] = endpoint: mean survival time, dose: 100.0 mg/kg/injection, schedule: Q01DX009 (ip), vehicle: saline
[2] = endpoint: mean survival time, dose: 200.0 mg/kg/injection, schedule: Q01DX009 (ip), vehicle: saline
[3] = endpoint: mean survival time, dose: 400.0 mg/kg/injection, schedule: Q01DX009 (ip), vehicle: saline
[4] = endpoint: mean survival time, dose: 100.0 mg/kg/injection, schedule: Q04DX003 (ip), vehicle: saline with Tween-80
[5] = endpoint: mean survival time, dose: 200.0 mg/kg/injection, schedule: Q04DX003 (ip), vehicle: saline with Tween-80
[6] = endpoint: mean survival time, dose: 400.0 mg/kg/injection, schedule: Q04DX003 (ip), vehicle: saline with Tween-80
[7] = endpoint: mean survival time, dose: 100.0 mg/kg/injection, schedule: Q01DX009 (ip), vehicle: saline with Tween-80
[8] = endpoint: mean survival time, dose: 200.0 mg/kg/injection, schedule: Q01DX009 (ip), vehicle: saline with Tween-80
[9] = endpoint: mean survival time, dose: 100.0 mg/kg/injection, schedule: Q04DX003 (ip), vehicle: saline
[10] = endpoint: mean survival time, dose: 200.0 mg/kg/injection, schedule: Q04DX003 (ip), vehicle: saline
[11] = endpoint: mean survival time, dose: 400.0 mg/kg/injection, schedule: Q04DX003 (ip), vehicle: saline
[12] = endpoint: mean survival time, dose: 75.0 mg/kg/injection, schedule: Q01DX001 (ip), vehicle: saline
[13] = endpoint: mean survival time, dose: 150.0 mg/kg/injection, schedule: Q01DX001 (ip), vehicle: saline
[14] = endpoint: mean survival time, dose: 100.0 mg/kg/injection, schedule: Q04DX002 (ip), vehicle: saline with Tween-80
[15] = endpoint: mean survival time, dose: 200.0 mg/kg/injection, schedule: Q04DX002 (ip), vehicle: saline with Tween-80
[16] = endpoint: mean survival time, dose: 400.0 mg/kg/injection, schedule: Q04DX002 (ip), vehicle: saline with Tween-80
[17] = endpoint: mean survival time, dose: 100.0 mg/kg/injection, schedule: Q01DX001 (ip), vehicle: saline with Tween-80
[18] = endpoint: mean survival time, dose: 200.0 mg/kg/injection, schedule: Q01DX001 (ip), vehicle: saline with Tween-80
[19] = endpoint: mean survival time, dose: 400.0 mg/kg/injection, schedule: Q01DX001 (ip), vehicle: saline with Tween-80
[20] = endpoint: mean survival time, dose: 400.0 mg/kg/injection, schedule: Q01DX009 (ip), vehicle: saline with Tween-80
[21] = endpoint: mean survival time, dose: 100.0 mg/kg/injection, schedule: Q01DX009 (ip), vehicle: Klucel (hydroxypropylcellulose) (HPC)

Measured: T/C

Cc1ccnc(NS(=O)(=O)c2ccc(N)cc2)n1
inactive: [1] 100 % of control | [2] 96 % of control | [3] 97 % of control

CC(=O)COc1ccccc1NC(C)=O
inactive: [4] 91 % of control | [5] 102 % of control | [6] 91 % of control

COC(=O)c1nccnc1N
inactive: endpoint: mean survival time, dose: 100.0 mg/kg/injection, schedule: Q04DX002 (ip), vehicle: saline 96 % of control | endpoint: mean survival time, dose: 200.0 mg/kg/injection, schedule: Q04DX002 (ip), vehicle: saline 105 % of control | endpoint: mean survival time, dose: 400.0 mg/kg/injection, schedule: Q04DX002 (ip), vehicle: saline 113 % of control

N#Cc1c(F)c(F)cc(F)c1F
inactive: [7] 100 % of control | [4] 96 % of control | [8] 96 % of control | [5] 96 % of control | [6] 93 % of control

C[CH2][Ge]([CH2]C)[CH2]C.C[CH2][Ge]([CH2]C)[CH2]C
inactive: endpoint: mean survival time, dose: 50.0 mg/kg/injection, schedule: Q04DX003 (ip), vehicle: saline with Tween-80 104 % of control | [4] 100 % of control | [5] 104 % of control

O=C(O)C1C2CC(O)C(C2)C1C(=O)O (stereo unspecified)
inactive: [1] 97 % of control | [9] 94 % of control | [2] 100 % of control | [10] 94 % of control | [3] 97 % of control | [11] 95 % of control

O=c1[nH]cnc2c1CN(c1ccccc1)C2
inactive: [12] 113 % of control | [13] 104 % of control

CNC(=S)/N=c1/scc(C)n1C
inactive: [14] 91 % of control | [15] 91 % of control | [16] 111 % of control

NC(=O)N/N=C/COC(=O)c1ccccc1
inactive: [17] 93 % of control | [18] 91 % of control | [19] 98 % of control

CCCCOC(=O)CCC(NC(=O)c1ccc(N(C)Cc2cnc3nc(N)nc(N)c3n2)cc1)C(=O)OCCCC (stereo unspecified)
inactive: endpoint: mean survival time, dose: 0.09 mg/kg/injection, schedule: Q01DX009 (ip), vehicle: distilled water + Tween-80 108 % of control | endpoint: mean survival time, dose: 0.19 mg/kg/injection, schedule: Q01DX009 (ip), vehicle: distilled water + Tween-80 113 % of control and 91 % of control | endpoint: mean survival time, dose: 0.75 mg/kg/injection, schedule: Q01DX009 (ip), vehicle: distilled water + Tween-80 108 % of control | endpoint: mean survival time, dose: 1.5 mg/kg/injection, schedule: Q01DX009 (ip), vehicle: distilled water + Tween-80 89 % of control

CCCCCCCCC1C(CCCCCCCC(=O)N2CCCC2)C2(Cl)C(Cl)=C(Cl)C1(Cl)C2(Cl)Cl (stereo unspecified)
inactive: [12] 98 % of control | [13] 104 % of control | endpoint: mean survival time, dose: 300.0 mg/kg/injection, schedule: Q01DX001 (ip), vehicle: saline 96 % of control

COC1OCC(C(C)=O)C(O)C1O (stereo unspecified)
inactive: endpoint: mean survival time, dose: 100.0 mg/kg/injection, schedule: Q01DX001 (ip), vehicle: saline 101 % of control | endpoint: mean survival time, dose: 200.0 mg/kg/injection, schedule: Q01DX001 (ip), vehicle: saline 96 % of control | endpoint: mean survival time, dose: 400.0 mg/kg/injection, schedule: Q01DX001 (ip), vehicle: saline 95 % of control

COc1cc(C=Nc2cccc3ccccc23)cc(OC)c1OC
inactive: [17] 98 % of control | [7] 88 % of control and 93 % of control | [14] 89 % of control and 100 % of control | [4] 103 % of control | [18] 95 % of control | [8] 91 % of control and 96 % of control | [15] 89 % of control and 96 % of control | [5] 96 % of control | [19] 88 % of control | [20] 92 % of control and 95 % of control | [16] 96 % of control and 100 % of control | [6] 92 % of control

CCCCC=CC1CCCCC1 (mixture of isomers)
inactive: [9] 94 % of control | [10] 94 % of control | [11] 94 % of control

CC(=O)C(c1ccccc1)N(C)C(=O)c1ccccc1 (stereo unspecified)
inactive: [1] 95 % of control | [2] 94 % of control | [3] 104 % of control

Cc1ccc(C23CC4CC(CC(C4)C2)C3)cc1
inactive: endpoint: mean survival time, dose: 12.5 mg/kg/injection, schedule: Q04DX002 (ip), vehicle: saline with Tween-80 101 % of control | endpoint: mean survival time, dose: 25.0 mg/kg/injection, schedule: Q04DX002 (ip), vehicle: saline with Tween-80 93 % of control | endpoint: mean survival time, dose: 50.0 mg/kg/injection, schedule: Q04DX002 (ip), vehicle: saline with Tween-80 96 % of control

C=C(Br)CNC(=O)CCCl
inactive: endpoint: mean survival time, dose: 1.56 mg/kg/injection, schedule: Q01DX009 (ip), vehicle: other 102 % of control | endpoint: mean survival time, dose: 3.13 mg/kg/injection, schedule: Q01DX009 (ip), vehicle: other 103 % of control | endpoint: mean survival time, dose: 6.25 mg/kg/injection, schedule: Q01DX009 (ip), vehicle: other 100 % of control | endpoint: mean survival time, dose: 6.25 mg/kg/injection, schedule: Q04DX003 (ip), vehicle: other 103 % of control | endpoint: mean survival time, dose: 12.5 mg/kg/injection, schedule: Q04DX003 (ip), vehicle: other 100 % of control | endpoint: mean survival time, dose: 25.0 mg/kg/injection, schedule: Q04DX003 (ip), vehicle: other 105 % of control

CC(=O)C1CCC2(C)C(CCC3C4CCC(C(C)=O)C4(C)CC(=O)C32)C1 (stereo unspecified)
inactive: endpoint: mean survival time, dose: 50.0 mg/kg/injection, schedule: Q01DX009 (ip), vehicle: Klucel (hydroxypropylcellulose) (HPC) 96 % of control | [21] 100 % of control | endpoint: mean survival time, dose: 200.0 mg/kg/injection, schedule: Q01DX009 (ip), vehicle: Klucel (hydroxypropylcellulose) (HPC) 93 % of control

BrCC[CH2][Sn]([Br])([Br])[Br]
inactive: endpoint: mean survival time, dose: 50.0 mg/kg/injection, schedule: Q01DX009 (ip), vehicle: saline 103 % of control | [1] 91 % of control | [2] 95 % of control

O=C(CC(=O)c1ccccc1)c1ccccc1.O=C(CC(=O)c1ccccc1)c1ccccc1.[Pd]
inactive: endpoint: mean survival time, dose: 3.13 mg/kg/injection, schedule: Q04DX003 (ip), vehicle: distilled water + Tween-80 96 % of control | endpoint: mean survival time, dose: 6.25 mg/kg/injection, schedule: Q04DX003 (ip), vehicle: distilled water + Tween-80 98 % of control | endpoint: mean survival time, dose: 12.5 mg/kg/injection, schedule: Q04DX003 (ip), vehicle: distilled water + Tween-80 94 % of control | endpoint: mean survival time, dose: 25.0 mg/kg/injection, schedule: Q04DX003 (ip), vehicle: distilled water + Tween-80 98 % of control | endpoint: mean survival time, dose: 50.0 mg/kg/injection, schedule: Q04DX003 (ip), vehicle: distilled water + Tween-80 93 % of control | endpoint: mean survival time, dose: 100.0 mg/kg/injection, schedule: Q04DX003 (ip), vehicle: distilled water + Tween-80 89 % of control | endpoint: mean survival time, dose: 200.0 mg/kg/injection, schedule: Q04DX003 (ip), vehicle: distilled water + Tween-80 107 % of control

O=C1OC2C(I)C3CC1C2C3 (stereo unspecified)
inactive: [4] 96 % of control | [5] 96 % of control

Cc1ccc(N2OCCN(C(=O)c3cc([N+](=O)[O-])cc([N+](=O)[O-])c3)C2c2ccccc2)cc1 (stereo unspecified)
inactive: [7] 91 % of control | [8] 95 % of control | [20] 91 % of control

CC/C(=N/NC(=O)c1ccccc1)c1ccccc1
inactive: [21] 97 % of control | endpoint: mean survival time, dose: 100.0 mg/kg/injection, schedule: Q04DX003 (ip), vehicle: Klucel (hydroxypropylcellulose) (HPC) 96 % of control | endpoint: mean survival time, dose: 200.0 mg/kg/injection, schedule: Q04DX003 (ip), vehicle: Klucel (hydroxypropylcellulose) (HPC) 94 % of control | endpoint: mean survival time, dose: 400.0 mg/kg/injection, schedule: Q04DX003 (ip), vehicle: Klucel (hydroxypropylcellulose) (HPC) 86 % of control

CCC1(O)C(=O)OCc2c1cc1n(c2=O)Cc2cc3ccc(/C=N/N=C(N)N)cc3nc2-1 (stereo unspecified)
inactive: endpoint: median survival time, dose: 10.0 mg/kg/injection, schedule: Q04DX002 (ip), vehicle: saline with Tween-80 106 % of control | endpoint: median survival time, dose: 20.0 mg/kg/injection, schedule: Q04DX002 (ip), vehicle: saline with Tween-80 113 % of control | endpoint: median survival time, dose: 40.0 mg/kg/injection, schedule: Q04DX002 (ip), vehicle: saline with Tween-80 102 % of control | endpoint: median survival time, dose: 80.0 mg/kg/injection, schedule: Q04DX002 (ip), vehicle: saline with Tween-80 102 % of control

CN(C)c1ccc(N=Nc2cccnc2)cc1
inactive: [17] 97 % of control | [18] 97 % of control
